Assay results: patent US8541460B2, “PDK-1/Akt signaling inhibitors” (The Ohio State University, priority 2003, dated 2013)

Experiments:
NCI-H522 = assay: NCI DTP cell line screen (SRB), Non-Small Cell Lung Cancer; type: cell-based, human; conditions: for TGI: in M (unit assumed)
Procedure: (§1) Screening of compounds 70 and 71 against several cancer cell lines The human tumor cell lines of the cancer screening panel are grown in RPMI 1640 medium containing 5% fetal bovine serum and 2 mM L-glutamine. For a typical screening experiment, cells are inoculated into 96 well microtiter plates in 100 μL at plating densities ranging from 5,000 to 40,000 cells/well depending on the doubling time of individual cell lines. After cell inoculation, the microtiter plates are incubated at 37° C., 5% CO2, 95% air and 100% relative humidity for 24 h prior to addition of experimental drugs.
(§2) After 24 h, two plates of each cell line are fixed in situ with TCA, to represent a measurement of the cell population for each cell line at the time of drug addition (Tz). Experimental drugs are solubilized in dimethyl sulfoxide at 400-fold the desired final maximum test concentration and stored frozen prior to use. At the time of drug addition, an aliquot of frozen concentrate is thawed and diluted to twice the desired final maximum test concentration with complete medium containing 50 μg/ml gentamicin. Additional four, 10-fold or ½ log serial dilutions are made to provide a total of five drug concentrations plus control. Aliquots of 100 μl of these different drug dilutions are added to the appropriate microtiter wells already containing 100 μl of medium, resulting in the required final drug concentrations.
(§3) Following drug addition, the plates are incubated for an additional 48 h at 37° C., 5% CO2, 95% air, and 100% relative humidity. For adherent cells, the assay is terminated by the addition of cold TCA. Cells are fixed in situ by the gentle addition of 50 μl of cold 50% (w/v) TCA (final concentration, 10% TCA) and incubated for 60 minutes at 4° C. The supernatant is discarded, and the plates are washed five times with tap water and air dried. Sulforhodamine B (SRB) solution (100 μl) at 0.4% (w/v) in 1% acetic acid is added to each well, and plates are incubated for 10 minutes at room temperature. After staining, unbound dye is removed by washing five times with 1% acetic acid and the plates are air dried. Bound stain is subsequently solubilized with 10 mM trizma base, and the absorbance is read on an automated plate reader at a wavelength of 515 nm. For suspension cells, the methodology is the same except that the assay is terminated by fixing settled cells at the bottom of the wells by gently adding 50 μl of 80% TCA (final concentration, 16% TCA). Using the seven absorbance measurements [time zero, (Tz), control growth, (C), and test growth in the presence of drug at the five concentration levels (Ti)], the percentage growth is calculated at each of the drug concentrations levels. Percentage growth inhibition is calculated as: [(Ti−Tz)/(C−Tz)]×100 for concentrations for which Ti>/=Tz [(Ti−Tz)/Tz]×100 for concentrations for which Ti<Tz
(§4) Three dose response parameters are calculated for each experimental agent. […] The drug concentration resulting in total growth inhibition (TGI) is calculated from Ti=Tz. […] Values are calculated for each of these three parameters if the level of activity is reached; however, if the effect is not reached or is exceeded, the value for that parameter is expressed as greater or less than the maximum or minimum concentration tested.
(§5) The methods described were used to test compounds 70 and 71 on a panel of sixty cell lines under a screening service provided by the Developmental Therapeutics Program at the National Institutes of Health. Shown in FIG. 1C are 1, RPMI-8226 leukemia cells; 2; NCI-H322M non-small cell lung cancer cells; 3, HT29 colon cancer cells; 4, U251 CNS cancer cells; 5, SK-MEL-28 melanoma cancer cells; 6, SK-OV-3 ovarian cancer cells; 7, RXF 393 renal cancer cells; 8, PC-3 prostate cancer cells; 9, MDA-MB-231 breast cancer cells.

SK-OV-3 = assay: NCI DTP cell line screen (SRB), Ovarian Cancer; type: cell-based, human
Procedure: as §1, §2, §3, §4, §5

SN12C = assay: NCI DTP cell line screen (SRB), Renal Cancer; type: cell-based
Procedure: as §1, §2, §3, §4, §5

TK-10 = assay: NCI DTP cell line screen (SRB), Renal Cancer; type: cell-based
Procedure: as §1, §2, §3, §4, §5

A498 = assay: NCI DTP cell line screen (SRB), Renal Cancer; type: cell-based
Procedure: as §1, §2, §3, §4, §5

786-0 = assay: NCI DTP cell line screen (SRB), Renal Cancer; type: cell-based
Procedure: as §1, §2, §3, §4, §5

UACC-62 = assay: NCI DTP cell line screen (SRB), Melanoma; type: cell-based
[1] = read-out: LC50 (the source's name)

Compound: NCC(=O)Nc1ccc(-n2nc(C(F)(F)F)cc2-c2ccc3c(ccc4ccccc43)c2)cc1 [Compound 70, 2-Amino-N-{4-[5-(2-phenanthrenyl)-3-(trifluoromethyl)-1H-pyrazol-1-yl]-phenyl}-acetamide]
- Percent Growth (NCI-H522; Log10 Concentration −4.0): −37%
- Percent Growth (NCI-H522; Log10 Concentration −5.0): −66%
- Percent Growth (NCI-H522; Log10 Concentration −6.0): 97%
- Percent Growth (NCI-H522; Log10 Concentration −7.0): 122%
- Percent Growth (NCI-H522; Log10 Concentration −8.0): 110%
- TGI (NCI-H522): 3.94E−06
- TGI (SK-OV-3): 2.96E−06
- Percent Growth (SK-OV-3; Log10 Concentration −4.0): −24%
- Percent Growth (SK-OV-3; Log10 Concentration −5.0): −79%
- Percent Growth (SK-OV-3; Log10 Concentration −6.0): 71%
- Percent Growth (SK-OV-3; Log10 Concentration −7.0): 98%
- Percent Growth (SK-OV-3; Log10 Concentration −8.0): 91%
- TGI (SN12C): 3.51E−06
- Percent Growth (SN12C; Log10 Concentration −4.0): −47%
- Percent Growth (SN12C; Log10 Concentration −5.0): −65%
- Percent Growth (SN12C; Log10 Concentration −6.0): 78%
- Percent Growth (SN12C; Log10 Concentration −7.0): 94%
- Percent Growth (SN12C; Log10 Concentration −8.0): 96%
- TGI (TK-10): 3.10E−06
- Percent Growth (TK-10; Log10 Concentration −4.0): −70%
- Percent Growth (TK-10; Log10 Concentration −5.0): −80%
- Percent Growth (TK-10; Log10 Concentration −6.0): 77%
- Percent Growth (TK-10; Log10 Concentration −7.0): 100%
- Percent Growth (TK-10; Log10 Concentration −8.0): 102%
- TGI (A498): 5.75E−06
- Percent Growth (A498; Log10 Concentration −4.0): −54%
- Percent Growth (A498; Log10 Concentration −5.0): −30%
- Percent Growth (A498; Log10 Concentration −6.0): 95%
- Percent Growth (A498; Log10 Concentration −7.0): 126%
- Percent Growth (A498; Log10 Concentration −8.0): 98%
- TGI (786-0): 2.85E−06
- Percent Growth (786-0; Log10 Concentration −4.0): −54%
- Percent Growth (786-0; Log10 Concentration −5.0): −72%
- Percent Growth (786-0; Log10 Concentration −6.0): 60%
- Percent Growth (786-0; Log10 Concentration −7.0): 95%
- Percent Growth (786-0; Log10 Concentration −8.0): 104%
- TGI (UACC-62): 3.15E−06
- Percent Growth (UACC-62; Log10 Concentration −4.0): −46%
- Percent Growth (UACC-62; Log10 Concentration −5.0): −80%
- Percent Growth (UACC-62; Log10 Concentration −6.0): 79%
- Percent Growth (UACC-62; Log10 Concentration −7.0): 94%
- Percent Growth (UACC-62; Log10 Concentration −8.0): 105%

Compound: N=C(N)Nc1ccc(-n2nc(C(F)(F)F)cc2-c2ccc3c(ccc4ccccc43)c2)cc1 [Compound 71, 4-[5-(2-Phenanthrenyl)-3-(trifluoromethyl)-1H-pyrazol-1-yl]-phenyl-guanidine]
- GI50 (NCI-H522): 1450 nM
- Mean Optical Densities (NCI-H522; Log10 Concentration −4.0): 0.439
- Percent Growth (NCI-H522; Log10 Concentration −4.0): −43%
- Mean Optical Densities (NCI-H522; Log10 Concentration −5.0): 0.037
- Percent Growth (NCI-H522; Log10 Concentration −5.0): −95%
- Mean Optical Densities (NCI-H522; Log10 Concentration −6.0): 1.471
- Percent Growth (NCI-H522; Log10 Concentration −6.0): 78%
- Mean Optical Densities (NCI-H522; Log10 Concentration −7.0): 1.558
- Percent Growth (NCI-H522; Log10 Concentration −7.0): 87%
- Mean Optical Densities (NCI-H522; Log10 Concentration −8.0): 1.509
- Percent Growth (NCI-H522; Log10 Concentration −8.0): 82%
- TGI (NCI-H522): 2.82E−06
- GI50 (SK-OV-3): 1430 nM
- TGI (SK-OV-3): 2.94E−06
- Mean Optical Densities (SK-OV-3; Log10 Concentration −4.0): 0.278
- Percent Growth (SK-OV-3; Log10 Concentration −4.0): −30%
- Mean Optical Densities (SK-OV-3; Log10 Concentration −5.0): 0.062
- Percent Growth (SK-OV-3; Log10 Concentration −5.0): −85%
- Mean Optical Densities (SK-OV-3; Log10 Concentration −6.0): 1.093
- Percent Growth (SK-OV-3; Log10 Concentration −6.0): 75%
- Mean Optical Densities (SK-OV-3; Log10 Concentration −7.0): 1.245
- Percent Growth (SK-OV-3; Log10 Concentration −7.0): 91%
- Mean Optical Densities (SK-OV-3; Log10 Concentration −8.0): 1.261
- Percent Growth (SK-OV-3; Log10 Concentration −8.0): 93%
- GI50 (SN12C): 1570 nM
- TGI (SN12C): 2.91E−06
- Mean Optical Densities (SN12C; Log10 Concentration −4.0): 0.224
- Percent Growth (SN12C; Log10 Concentration −4.0): −62%
- Mean Optical Densities (SN12C; Log10 Concentration −5.0): −0.014
- Percent Growth (SN12C; Log10 Concentration −5.0): −100%
- Mean Optical Densities (SN12C; Log10 Concentration −6.0): 1.045
- Percent Growth (SN12C; Log10 Concentration −6.0): 87%
- Mean Optical Densities (SN12C; Log10 Concentration −7.0): 0.998
- Percent Growth (SN12C; Log10 Concentration −7.0): 78%
- Mean Optical Densities (SN12C; Log10 Concentration −8.0): 1.050
- Percent Growth (SN12C; Log10 Concentration −8.0): 88%
- GI50 (TK-10): 1320 nM
- TGI (TK-10): 2.59E−06
- Mean Optical Densities (TK-10; Log10 Concentration −4.0): 0.245
- Percent Growth (TK-10; Log10 Concentration −4.0): −64%
- Mean Optical Densities (TK-10; Log10 Concentration −5.0): −0.021
- Percent Growth (TK-10; Log10 Concentration −5.0): −100%
- Mean Optical Densities (TK-10; Log10 Concentration −6.0): 0.998
- Percent Growth (TK-10; Log10 Concentration −6.0): 71%
- Mean Optical Densities (TK-10; Log10 Concentration −7.0): 1.087
- Percent Growth (TK-10; Log10 Concentration −7.0): 90%
- Mean Optical Densities (TK-10; Log10 Concentration −8.0): 1.032
- Percent Growth (TK-10; Log10 Concentration −8.0): 78%
- CC50 (TK-10; [1]): 5090 nM
- GI50 (A498): 16500 nM
- TGI (A498): 4.35E−05
- Mean Optical Densities (A498; Log10 Concentration −4.0): 0.540
- Percent Growth (A498; Log10 Concentration −4.0): −43%
- Mean Optical Densities (A498; Log10 Concentration −5.0): 1.903
- Percent Growth (A498; Log10 Concentration −5.0): 76%
- Mean Optical Densities (A498; Log10 Concentration −6.0): 1.869
- Percent Growth (A498; Log10 Concentration −6.0): 73%
- Mean Optical Densities (A498; Log10 Concentration −7.0): 2.087
- Percent Growth (A498; Log10 Concentration −7.0): 91%
- Mean Optical Densities (A498; Log10 Concentration −8.0): 2.413
- Percent Growth (A498; Log10 Concentration −8.0): 116%
- CC50 (A498; [1]): > 100000 nM
- GI50 (786-0): 1490 nM
- TGI (786-0): 2.91E−06
- Mean Optical Densities (786-0; Log10 Concentration −4.0): 0.458
- Percent Growth (786-0; Log10 Concentration −4.0): −30%
- Mean Optical Densities (786-0; Log10 Concentration −5.0): 0.046
- Percent Growth (786-0; Log10 Concentration −5.0): −93%
- Mean Optical Densities (786-0; Log10 Concentration −6.0): 1.663
- Percent Growth (786-0; Log10 Concentration −6.0): 80%
- Mean Optical Densities (786-0; Log10 Concentration −7.0): 1.868
- Percent Growth (786-0; Log10 Concentration −7.0): 96%
- Mean Optical Densities (786-0; Log10 Concentration −8.0): 1.862
- Percent Growth (786-0; Log10 Concentration −8.0): 96%
- GI50 (UACC-62): 1440 nM
- TGI (UACC-62): 2.74E−06
- Mean Optical Densities (UACC-62; Log10 Concentration −4.0): 0.272
- Percent Growth (UACC-62; Log10 Concentration −4.0): −60%
- Mean Optical Densities (UACC-62; Log10 Concentration −5.0): −0.041
- Percent Growth (UACC-62; Log10 Concentration −5.0): −100%
- Mean Optical Densities (UACC-62; Log10 Concentration −6.0): 1.301
- Percent Growth (UACC-62; Log10 Concentration −6.0): 78%
- Mean Optical Densities (UACC-62; Log10 Concentration −7.0): 1.338
- Percent Growth (UACC-62; Log10 Concentration −7.0): 83%
- Mean Optical Densities (UACC-62; Log10 Concentration −8.0): 1.323
- Percent Growth (UACC-62; Log10 Concentration −8.0): 81%
- CC50 (UACC-62; [1]): 5240 nM
